Each structure is given as a SMILES string.

Data on 29 molecules can be found in ChEMBL document CHEMBL2424514, “Prediction of glucagon receptor antagonist activities of some substituted imidazoles using combined radial basis function neural network and density functional theory” (Med Chem Res, 2013).

The test concerns the target Glucagon receptor (Homo sapiens, UniProt P47871). Briefly: Inhibition of human glucagon receptor expressed in CHO cell membranes by radioligand displacement assay. Type of test: cell-based. A general note: In a radioligand displacement assay an active substance lowers the binding of a labelled ligand.

Sequence of Glucagon receptor (P47871 whole entry): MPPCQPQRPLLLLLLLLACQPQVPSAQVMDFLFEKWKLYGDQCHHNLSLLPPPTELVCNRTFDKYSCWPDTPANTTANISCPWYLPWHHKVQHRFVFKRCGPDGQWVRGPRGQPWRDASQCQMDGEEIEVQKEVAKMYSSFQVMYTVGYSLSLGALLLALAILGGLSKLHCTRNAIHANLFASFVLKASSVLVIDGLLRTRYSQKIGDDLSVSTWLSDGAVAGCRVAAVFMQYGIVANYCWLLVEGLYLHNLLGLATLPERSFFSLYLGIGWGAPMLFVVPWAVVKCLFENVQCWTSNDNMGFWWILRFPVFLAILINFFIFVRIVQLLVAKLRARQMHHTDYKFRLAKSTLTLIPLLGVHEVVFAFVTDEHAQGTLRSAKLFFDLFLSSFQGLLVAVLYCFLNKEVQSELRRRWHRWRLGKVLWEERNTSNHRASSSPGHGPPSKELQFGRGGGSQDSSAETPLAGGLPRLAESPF

As for `N#Cc1ccc(-c2nc(-c3ccncc3)c(-c3ccc(F)cc3)[nH]2)cc1`, the IC50 was 210 nM. The value for `Brc1ccc(-c2nc(-c3ccncc3)c(-c3ccccc3)[nH]2)cc1` was 40.1 nM. With `Fc1ccc(-c2[nH]c(-c3ccc(I)cc3)nc2-c2ccncc2)cc1` the figure was 100 nM. The value for `Fc1ccc(-c2nc(-c3ccc(Cl)cc3)[nH]c2-c2ccncc2)cc1` was 80.2 nM; that for `Fc1ccc(-c2[nH]c(-c3cccc4ccccc34)nc2-c2ccncc2)cc1` was 340 nM.

Regarding `Clc1ccc(-c2nc(-c3ccncc3)c(-c3ccccc3Oc3ccccc3)[nH]2)cc1`, the IC50 was 150 nM.

The molecule `Clc1ccc(-c2nc(-c3ccc(I)cc3)c(-c3ccncc3)[nH]2)cc1` gave an IC50 of 140 nM. Turning to `Clc1ccc(-c2nc(-c3ccncc3)c(-c3ccc(Oc4ccccc4)cc3)[nH]2)cc1`, the IC50 was 250 nM. With `Cc1cc(-c2[nH]c(-c3ccc(Cl)cc3)nc2-c2ccc(F)cc2)ccn1` the figure was 50 nM. The value for `CCCOc1ccc(-c2[nH]c(-c3ccc(Cl)cc3)nc2-c2ccncc2)c(OCCC)c1` was 2400 nM; that for `Cc1ccc(-c2nc(-c3ccc(F)cc3)c(-c3ccncc3)[nH]2)cc1` was 90.2 nM; that for `Oc1ccc(-c2[nH]c(-c3ccc(Br)cc3)nc2-c2ccccc2)cc1` was 100 nM. The value for `Cc1cnccc1-c1nc(-c2ccc(Cl)cc2)[nH]c1-c1ccc(F)cc1` was 20 nM. `Fc1ccc(-c2[nH]c(-c3ccc(Br)s3)nc2-c2ccncc2)cc1`: the IC50 is 110 nM. The molecule `Brc1ccc(-c2nc(-c3ccccc3)c(-c3ccccc3)[nH]2)cc1` gave an IC50 of 2200 nM. The value for `Clc1ccc(-c2nc(-c3ccncc3)c(-c3ccc(Cl)cc3)[nH]2)cc1` was 23 nM. With `Clc1ccc(-c2nc(-c3ccc(-c4ccccc4)cc3)c(-c3ccncc3)[nH]2)cc1` the figure was 3300 nM; with `Fc1ccc(-c2[nH]c(-c3cccc(Br)c3)nc2-c2ccncc2)cc1`, 150 nM. The value for `CSc1ccc(-c2nc(-c3ccncc3)c(-c3ccc(F)cc3)n2C)cc1` was 861 nM; that for `Fc1ccc(-c2[nH]c(-c3ccc(-c4ccccc4)cc3)nc2-c2ccncc2)cc1` was 301 nM.

`Clc1ccc(-c2nc(-c3ccncc3)c(-c3cccc(Oc4ccccc4)c3)[nH]2)cc1` had an IC50 of 220 nM.

As to `CC(C)c1ccc(-c2nc(-c3ccc(F)cc3)c(-c3ccncc3)[nH]2)cc1`, the IC50 was 281 nM. In turn, `Fc1ccc(-c2[nH]c(-c3ccc(Br)o3)nc2-c2ccncc2)cc1` gave a concentration for half-maximal inhibition (IC50) of 190 nM. The value for `Fc1ccc(-c2[nH]c(-c3ccccc3Br)nc2-c2ccncc2)cc1` was 90.2 nM. With `Fc1ccc(-c2nc(-c3ccc(Br)cc3)[nH]c2-c2ccncc2)cc1` the figure was 160 nM; with `Clc1ccc(-c2nc(-c3cccc(-c4ccccc4)c3)c(-c3ccncc3)[nH]2)cc1`, 590 nM; with `Fc1ccc(-c2[nH]c(CCc3ccccc3)nc2-c2ccncc2)cc1`, 120 nM. The value for `CSc1ccc(-c2nc(-c3ccc(F)cc3)c(-c3ccncc3)o2)cc1` was 931 nM; that for `CSc1ccc(-c2nc(-c3ccc(F)cc3)c(-c3ccncc3)n2C)cc1` was 521 nM.

As a reminder, the IC50 is the concentration needed to halve the response being measured.
